Article PMC9574860, “Chemical Toolkit for PARK7: Potent, Selective, and High-Throughput” (Journal of Medicinal Chemistry, 2022)

Experiments:
[1] = molecular target: T1, PARK7 (Homo sapiens, UniProt Q99497); experiment: DiFMUAc PARK7 activity assay; type: biochemical; parameters: GST (N, cleaved yes); made in house; host or cells: E. coli BL21(DE3) Rosetta2; settings: PARK7 0.1 μM, DiFMUAc 300 μM; for inhibition at 12.5 µM: 12.5 µM compound, read-out: DiFMuAc assay %Inhibiton (12.5 µM); for inhibition at 12.5 µM / inhibition at 37.5 µM / inhibition at 100 µM: 2 h preincubation; for inhibition at 37.5 µM: 37.5 µM compound, read-out: DiFMuAc assay %Inhibiton (37.5 µM); for inhibition at 100 µM: 100 µM compound, read-out: DiFMuAc assay %Inhibiton (100 µM)
T1 sequence (Q99497 1-189): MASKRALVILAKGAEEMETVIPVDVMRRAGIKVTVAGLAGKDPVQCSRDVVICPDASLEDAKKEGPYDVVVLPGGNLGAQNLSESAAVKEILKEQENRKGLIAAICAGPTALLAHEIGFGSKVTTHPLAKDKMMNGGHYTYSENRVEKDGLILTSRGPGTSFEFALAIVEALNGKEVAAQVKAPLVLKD
Description: Compounds were transferred using a Labcyte Echo550 acoustic dispenser to obtain a 12-point serial dilution of 0.001 to 100 μM. Next, PARK7 (15 μL, final concentration of 0.1 μM) was dispensed with a Biotek MultiFlowFX liquid dispenser and incubated for 1 h, followed by dispensing the substrate DiFMUAc (5 μL, final concentration of 300 μM). The fluorescence intensity (FI) signal was monitored with a BMG Labtech PHERAstar plate reader (λex/em 350/450 nm) for 1 h.
The validation was performed in the PBS buffer with a reaction volume of 20 μL per well in triplicate. […] Next, PARK7 (15 μL, final concentration 0.1 μM) was dispensed with a Biotek MultiFlowFX liquid dispenser and incubated for 2 h, followed by dispensing the substrate DiFMUAc (5 μL, final concentration 300 μM). The FI signal was monitored with a BMG Labtech PHERAstar plate reader (λex/em 350/450 nm) for 1 h. The increase of FI signal compared with reference controls was used to calculate the remaining enzyme activity. The inhibition percentage of these 22 compounds was plotted as a heatmap using GraphPad Prism 9.0.1 software. Color gradients indicate inhibition percentage, no inhibiton (white) and full inhibition (blue).

[2] = molecular target: T1, PARK7; experiment: FP assay with Rhodamine110 probe JYQ-107 (IC50 and hit validation); type: binding; parameters: GST (N, cleaved yes); made in house; host or cells: E. coli BL21(DE3) Rosetta2; settings: for inhibition at 12.5 µM: read-out: FP assay %Inhibiton (12.5 µM); for inhibition at 37.5 µM: read-out: FP assay %Inhibiton (37.5 µM); for inhibition at 100 µM: read-out: FP assay %Inhibiton (100 µM)
Description: The assay was performed using the conditions as described above with a reaction volume of 20 μL per well in triplicate. Stock solutions of JYQ-88 of 1 and 0.1 mM were prepared. […] The FP signal was monitored with a BMG Labtech PHERAstar plate reader (λex/em 480/520 nm) for 2 h.
The validation was performed using the conditions as described above with a reaction volume of 20 μL per well in triplicate. […] The FP signal was monitored with a BMG Labtech PHERAstar plate reader (λex/em 480/520 nm) for 2 h. The relative loss of FP signal compared with reference controls was used to calculate the remaining enzyme activity. Inhibition percentage of these 40 compounds was plotted as a heatmap using GraphPad Prism 9.0.1 software. Color gradients indicate inhibition percentage, no inhibiton (white) and full inhibition (blue).

[3] = 12.5 µM compound, PARK7 0.2 μM, 1 h preincubation, JYQ-107 20 nM
[4] = 37.5 µM compound, PARK7 0.2 μM, 1 h preincubation, JYQ-107 20 nM
[5] = 100 µM compound, PARK7 0.2 μM, 1 h preincubation, JYQ-107 20 nM

| SMILES | IC50 ([1]; DiFMUAc assay, 1 h preincubation) | inhibition at 12.5 µM [2, 3] | inhibition at 37.5 µM [2, 4] | inhibition at 100 µM [2, 5] | inhibition at 12.5 µM [1] | inhibition at 37.5 µM [1] | inhibition at 100 µM [1] | inhibition at 12.5 µM [2] | inhibition at 37.5 µM [2] | inhibition at 100 µM [2] |
| --- | --- | --- | --- | --- | --- | --- | --- | --- | --- | --- |
| O=C1C(=O)N(CCc2ccccc2)c2ccc(F)cc21 [STK793590, reference compound] | 190 nM | – | – | – | – | – | – | – | – | – |
| CC1CCC(N(C)C(=O)CCl)CC1 (stereo not shown) [Z85923410] | – | 85.7% | 100% | 100% | 81.8% | 94.6% | 97.4% | – | – | – |
| Cc1cc(C(=O)CCl)c(C)[nH]1 [Z235333089] | – | 11.4% | 16.2% | 54.4% | – | – | – | – | – | – |
| CC1=NOC(=O)C1CC(=O)O (stereo not shown) [Z367451146] | – | 100% | 100% | 100% | 92.2% | 100% | 100% | – | – | – |
| NC(=O)c1csc(C(=O)CCl)c1 [Z802671642] | – | 23.8% | 25.8% | 68% | – | – | – | – | – | – |
| COc1ccc(NS(=O)(=O)c2ccc(S(=O)(=O)F)cc2)cn1 [Z1672273218] | – | – | – | – | – | – | – | 79.5% | 83.8% | 100% |
| Cn1c(=O)ccn(CC(=O)Nc2cccc(S(=O)(=O)F)c2)c1=O [Z1713568698] | – | – | – | – | – | – | – | 80.3% | 78.2% | 100% |

Further lines, with some results ahead:

| IC50 ([1]; DiFMUAc assay, 1 h preincubation) | inhibition at 12.5 µM [2, 3] | inhibition at 37.5 µM [2, 4] | inhibition at 100 µM [2, 5] | inhibition at 12.5 µM [1] | inhibition at 37.5 µM [1] | inhibition at 100 µM [1] | SMILES | inhibition at 12.5 µM [2] | inhibition at 37.5 µM [2] | inhibition at 100 µM [2] |
| --- | --- | --- | --- | --- | --- | --- | --- | --- | --- | --- |
| – | 90.8% | 95.6% | 100% | – | – | – | CCc1ccc(NC(=O)CCl)cc1 [Z56886400] | – | – | – |
| – | 100% | 100% | 100% | 81.4% | 94.9% | 97.4% | CCN(c1ccc(NC(=O)CCl)cc1)C(C)C [Z56896170] | – | – | – |
| – | 62.4% | 65.9% | 100% | – | – | – | O=C(CCl)Nc1ccc(SC(F)F)cc1 [Z56896308] | – | – | – |
| – | 100% | 100% | 100% | 87.1% | 94.2% | 100% | CC(C)(C)c1ccc(NC(=O)CCl)cc1 [Z56922153] | – | – | – |
| – | 68.3% | 66.1% | 100% | – | – | – | COc1ccccc1CN(C)C(=O)CCl [Z57051055] | – | – | – |
| – | 88.4% | 89.7% | 100% | – | – | – | CC(c1ccccc1)N(C)C(=O)CCl (stereo not shown) [Z86023354] | – | – | – |
| – | 84.2% | 85.1% | 100% | – | – | – | O=C(CCl)Nc1ccc(N2CCCCCC2)cc1 [Z190662892] | – | – | – |
| – | 100% | 100% | 100% | 80.5% | 79.6% | 91.4% | CC1CCc2ccccc2N1C(=O)CCl (stereo not shown) [Z220564178] | – | – | – |
| – | 79.5% | 81.3% | 100% | – | – | – | CC(c1ccc(Cl)cc1)N(C)C(=O)CCl (stereo not shown) [Z1562123076] | – | – | – |
